Patent US5157020A, “Synthetic senescent cell antigen” (Research Corporation Tech., Inc., priority 1990, dated 1992)
“Also recorded” adds a separate entry of the source. Where a SMILES comes first, the peptide text is derived from it.

Key:
[1] = test system: erythrocyte anion transport; assay: Peptide inhibition of sulfate influx (anion transport) in erythrocytes; type: cell-based, human; settings: for inhibition of anion transport (in words): equimolar amounts of peptide and sulfate
Method: Anion transport and DIDS inhibition measurements. Sulfate exchange is inhibited by […]. Stilbenedisulfonate derivatives such as DIDS inhibit anion transport by binding to at least two lysine residues in the membrane-spanning region of band 3 (45, 23, 35).
Peptide inhibition of sulfate "influx" experiments were performed essentially according to method of Jennings (46) using 300 mM sucrose, 10 mM Tris-HEPES, pH 7.0, as the "influx" buffer (47). Washed cells were incubated in 20-30 volumes of 110 mM K2 SO4 for 10 min at 37° C. to replace intracellular chloride. The cells were centrifuged and the supernatant removed and replaced with 110 mM K2 SO4 for 10 min. This was repeated 3 times. After the last centrifugation, cells were resuspended 300 mM sucrose, 10 mM Tris-HEPES, pH 7.0, and washed once. Cells were suspended to 2×10^8 cells/ml in 2 ml influx buffer at 37° C. Radioactive sulfate (0.01 mM) was added (582 mCi/mM) at suitable time intervals. Samples were taken and added to 18 volumes of ice cold 1.15% KCl (154 mM KCl) buffered to pH 7.4 with MOPS ("wash buffer"). The high chloride concentration, temperature, and pH all inhibit sulfate transport. Cells were washed twice to remove external sulfate at 0° C. with wash buffer. All samples were deproteinized with trichloracetic acid (final concentration 6.7%) and counted with Ready-Solv HP/6 (Beckman, Fullerton, Calif.) in a liquid scintillation counter. For peptide inhibition of sulfate transport, 0.01 mM of peptide(s) were added to the radioactive sulfate prior to addition to cells suspended in influx buffer.

senescent cell IgG [2] = assay: IgG binding and inhibition assay (competitive inhibition of senescent cell IgG binding to stored erythrocytes, 125I-Protein A); design: species or system human; settings: for INHIBITION (%) of senescent cell IgG binding: Table 1, peptides 300 ug, senescent cell IgG 3 ug, 90 mins at room temperature, mean ± 1 SD of quadruplicate samples; for INHIBITION (%) of senescent cell IgG binding to erythrocytes, before or after DIDS modification: Table 4, 30 ug, stored red cells, ± SD, unmodified ANION 1 and COOH from a separate experiment; for inhibition of senescent cell IgG binding (in words): competitive inhibition assay
Method: IgG binding and inhibition assay. IgG was isolated from senescent RBC from 50 liters of blood and purified with Protein A Sepharose as previously described (2, 4). IgG eluted from senescent cells (SCIgG), rather than serum IgG, was used because normal serum contains antibodies to spectrin, actin, 2.1, etc. (28). Competitive inhibition studies were performed using synthetic peptides to absorb the IgG isolated from senescent erythrocytes. Intact dimeric, senescent cell IgG containing the Fc portion binds to senescent cells in situ and initiates their removal (1-7, 30). Fab fragments were not used because we were simulating the physiological situation. IgG isolated from aged erythrocytes binds specifically to senescent cells. […] Moreover, the specific binding capacity of the autoantibody was eliminated by absorption with purified senescent cell antigen (SCA; 7). […] Storage mimics normal aging in situ immunologically and biochemically (1-7, 30). The number of red cell-bound IgG molecules was quantitated before and after absorption using equilibrium binding kinetics (7, 30, 31). Details of the methods are given elsewhere (27). Percent inhibition was calculated from the following formula: 100[1-(x-b/T-b)] where x=molecules of IgG autoantibody bound per cell; T=total number of IgG antibody molecules bound in the absence of inhibitor; b=background Protein A binding.
Competitive inhibition studies were performed using synthetic peptides to absorb the IgG isolated from senescent erythrocytes. IgG binding and inhibition were determined with a protein A binding assay. This biological assay measures the fate of erythrocytes in vitro and in vivo (1, 2, 4).
IgG binding and inhibition assay. Competitive inhibition studies were performed using synthetic peptides to absorb the IgG isolated from senescent erythrocytes. This is the same IgG that initiates phagocytosis in situ. The Fc portion IgG is required for binding and phagocytosis of cells by macrophages (3, 2, 4, 7, 29). Fab fragments were not used because we were simulating the physiological situation. Intact dimeric, senescent cell IgG containing the Fc portion binds to senescent cells in situ and initiates their removal (3, 32, 2, 4, 6, 17, 7). Only IgG isolated from aged erythrocytes binds specifically to senescent cells. […] Moreover, the specific binding capacity of the autoantibody was eliminated by absorption with purified senescent cell antigen (39). […] Storage mimics normal aging in situ immunologically and biochemically (32, 2, 4, 6, 29, 7). After incubation with absorbed IgG, cells were washed four times with 40-50 volumes of phosphate buffered saline containing 0.2% bovine serum albumin (BSA, fraction V, Sigma, St. Louis, Mo.) and 0.5% glucose. Washed cells were transferred to BSA-coated tubes (5×10^7 cells/50 ul) and incubated for 30 min. at 37° C. with ^125 I-Protein A (Amersham, Arlington Heights, Ill. 30-38 mCi/mg, 10-15 ng/tube). Cells were then washed four times and transferred to new tubes before counting in a gamma scintillation counter (Beckman, Gamma 5,500). The number of red cell-bound IgG molecules was quantitated before and after absorption using equilibrium binding kinetics (7).
Scatchard analysis was performed. Scathard, NY Acad. Sci. 51:660-672 (1949), incorporated herein by reference. Percent inhibition was calculated from the following formula: 100[1-(x-b/T-b)] where x=molecules of IgG autoantibody bound per cell; T=total number of IgG antibody molecules bound in the absence of inhibitor; b=background Protein A binding.

senescent cell IgG [3] = assay: Immunoblotting of synthetic peptides with IgG autoantibody from senescent erythrocytes; type: binding, human; settings: autoradiograph of immunoblot, FIG. 4
Method: Sodium dodecyl sulfate (NaDodSO4) polyacrylamide gel electrophoresis and immunostaining of peptides. Peptides were analyzed on 6-25% or 12-25% linear gels (6, 7, 27-29). Immunoautoradiography was performed by immunoblotting as described previously (6, 7, 28-30). Immunoblots were exposed to Kodak Ortho G (OG-1) film at -70° C. using our standard procedures (30, 45).
We used immunoblotting of the peptides followed by reaction with IgG eluted from senescent red cells (SCIgG) to localize the aging antigen site (FIG. 4A and B). We also used the IgG binding and inhibition assay at a singe concentration of peptide and performed Scatchard analysis (Table 2). […] Peptides that were negative by immunoblotting were also negative in the inhibition assay (FIG. 4 and Table 2).

[4] = Solubility of peptides in physiologic solutions; type: physicochemical; settings: even when coupled to BSA
Method: Peptides. Peptides were prepared by solid phase synthesis using an Applied Biosystems 430A automatic peptide synthesizer. They were analyzed by amino acid analysis, HPLC, sequencing, and/or FABS to determine purity. Amino acids are referred to by the standard single letter code. Peptides that are not soluble in phosphate buffered saline were dissolved in 1-2% NaDodSO4. Others were solubilized in acetic acid or trifluoroacetic acid, and sodium dodecyl sulfate (1-2%) is added. Once the peptides were in solution, they were conjugated to ovalbumin (5X crystallized) or BSA with 0.02% glutaraldehyde (32). The reaction was allowed to proceed for 30-60 min. blocked with ethanolamine, and the conjugate dialysed against PBS in tubing with a molecular weight cut off of ≤1000.

[5] = at concentrations up to / as high as 100 ug
[6] = equimolar peptide and sulfate (0.01 mM)

Row | Molecule | inhibition of anion transport (in words) [1] | INHIBITION (%) of senescent cell IgG binding (senescent cell IgG [2]) [%] | inhibition of senescent cell IgG binding (in words) (senescent cell IgG [2]) | binding of senescent cell IgG to peptide in immunoblots (senescent cell IgG [3]) | solubility [4] | also measured
1 | LFKPPKYHPDVPYVKR [COOH] | potent inhibitors of anion transport | 99 ± 1 | inhibitory over a range of 3 to 100 ug | binding | – | inhibition of anion transport ([1]; at 5 min, FIG. 7, compared to control without peptide): 52±3%; INHIBITION (%) of senescent cell IgG binding to erythrocytes, before or after DIDS modification (senescent cell IgG [2]): 20 ± 1%; inhibition of senescent cell IgG binding (senescent cell IgG [2]; [5]): ≤ 50%
2 | CC[C@H](C)[C@H](NC(=O)CNC(=O)[C@H](CO)NC(=O)[C@H](CC(C)C)NC(=O)[C@H](CO)NC(=O)[C@@H](NC(=O)[C@@H](NC(=O)CNC(=O)[C@H](CCSC)NC(=O)[C@H](Cc1ccc(O)cc1)NC(=O)[C@H](CC(C)C)NC(=O)[C@H](Cc1ccccc1)NC(=O)[C@@H](NC(=O)CNC(=O)[C@@H](N)Cc1ccccc1)[C@@H](C)CC)C(C)C)[C@@H](C)O)C(=O)N[C@@H](CCC(N)=O)C(=O)N[C@@H](CC(C)C)C(=O)O [789-805, FGIFLYMGVTSLSGIQL] (H-FGIFLYMGVTSLSGIQL-OH) | – | – | – | – | not completely soluble | –
3 | SKLIKIFQDHPLQKTYN [ANION 1] | does not inhibit anion transport | 88 ± 7 | inhibitory over a range of 3 to 100 ug | trace binding | – | inhibition of anion transport [1, 6]: 8±7%; INHIBITION (%) of senescent cell IgG binding to erythrocytes, before or after DIDS modification (senescent cell IgG [2]): 32 ± 2%; inhibition of senescent cell IgG binding (senescent cell IgG [2]; [5]): ≤ 50%
4 | QKLSVPDGFKVSNSSARGW [GLYCOS] | – | – | only weakly inhibitory | Binding of antibody | – | INHIBITION (%) of senescent cell IgG binding to erythrocytes (senescent cell IgG [2]; Table 2, all peptides tested at 30 ug, ± standard deviation): 9 ± 0%
5 | CC[C@H](C)[C@H](NC(=O)CNC(=O)[C@H](Cc1ccccc1)NC(=O)[C@H](CC(C)C)NC(=O)[C@@H](NC(=O)[C@H](C)NC(=O)[C@H](CC(C)C)NC(=O)[C@@H]1CCCN1C(=O)[C@@H](NC(=O)[C@H](CCCNC(=N)N)NC(=O)[C@H](CO)NC(=O)[C@H](CC(C)C)NC(=O)[C@@H](NC(=O)[C@@H]1CCCN1C(=O)[C@H](CCC(=O)O)NC(=O)[C@@H](N)CCSC)[C@@H](C)CC)[C@@H](C)CC)C(C)C)C(=O)N[C@@H](Cc1ccccc1)C(=O)N[C@@H](CC(C)C)C(=O)O [776-793, MEPILSRIPLAVLFGIFL] (H-MEPILSRIPLAVLFGIFL-OH) | – | – | – | – | not completely soluble | –
6 | FKPPKY (UniProt P02730 813-818, looked up, fragment) [N6] | potent inhibitors of anion transport | – | – | – | – | inhibition of senescent cell IgG binding (senescent cell IgG [2]; at 10 ug): 48±1%; inhibition of senescent cell IgG binding (senescent cell IgG [2]; at 10 ug, listed as COOH hexamer (N6)): ~ 50%
7 | LRKFKNSSYFPGKLR [ANION 2] | – | 30 ± 12 | only slightly inhibitory; also recorded: only weakly inhibitory | bound | – | inhibition of anion transport [1, 6]: 38±4%
8 | AGVANQLLDRFIFEDQ [CYTO, reference compound] | – | 0 | does not inhibit | – | – | –
9 | CC[C@H](C)[C@H](NC(=O)CNC(=O)[C@H](CO)NC(=O)[C@@H](N)CC(C)C)C(=O)N[C@@H](CCC(N)=O)C(=O)N[C@@H](CC(C)C)C(=O)N[C@@H](Cc1ccccc1)C(=O)N[C@@H](CC(=O)O)C(=O)N[C@@H](CCCNC(=N)N)C(=O)N[C@H](C(=O)N[C@@H](CC(C)C)C(=O)N[C@@H](CC(C)C)C(=O)N[C@@H](CC(C)C)C(=O)N[C@@H](Cc1ccccc1)C(=O)N[C@@H](CCCCN)C(=O)N1CCC[C@H]1C(=O)N1CCC[C@H]1C(=O)N[C@@H](CCCCN)C(=O)N[C@@H](Cc1ccc(O)cc1)C(=O)O)[C@@H](C)CC [800-818, LSGIQLFDRILLLFKPPKY] (H-LSGIQLFDRILLLFKPPKY-OH) | – | – | – | – | not completely soluble | –
10 | YHPDVPYVKR [818-827] | – | – | – | – | – | percent inhibition of senescent cell IgG binding (senescent cell IgG [2]; FIG. 2 legend, 12.2 ug): 54±7; inhibition of senescent cell IgG binding (senescent cell IgG [2]; at 30 ug): 54±3%
